One test addresses T1, PDPK1 (Homo sapiens, UniProt O15530).
T1 sequence (O15530 1-556): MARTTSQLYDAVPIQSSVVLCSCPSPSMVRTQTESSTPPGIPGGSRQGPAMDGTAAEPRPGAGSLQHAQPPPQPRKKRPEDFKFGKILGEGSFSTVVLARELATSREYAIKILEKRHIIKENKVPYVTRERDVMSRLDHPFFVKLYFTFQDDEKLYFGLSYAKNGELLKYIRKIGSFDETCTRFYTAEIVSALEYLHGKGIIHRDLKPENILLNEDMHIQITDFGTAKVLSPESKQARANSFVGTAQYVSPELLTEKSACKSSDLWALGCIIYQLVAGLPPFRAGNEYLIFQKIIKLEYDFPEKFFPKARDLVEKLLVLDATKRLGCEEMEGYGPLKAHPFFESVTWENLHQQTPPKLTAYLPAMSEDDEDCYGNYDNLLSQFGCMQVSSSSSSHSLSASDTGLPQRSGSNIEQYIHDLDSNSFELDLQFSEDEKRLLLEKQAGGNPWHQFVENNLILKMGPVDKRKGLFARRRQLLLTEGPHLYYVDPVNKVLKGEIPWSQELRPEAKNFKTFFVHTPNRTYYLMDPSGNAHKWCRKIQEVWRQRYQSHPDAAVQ
The test can be described thus: PDK1-OMNIA kinase assay (ST28-Sox peptide). As to conditions: PDPK1 enzyme pre-incubated 30 min at 25° C. with compound; [ATP]=5 μM; ST28-Sox peptide substrate; read-out: Inhibition/Modification Designation (IC50, PDK1-OMNIA). On the set-up: purchased Invitrogen, BPS or SignalChem P3001 (Invitrogen), 40080 (BPS), P14-10H (SignalChem). Type of test: biochemical. The protocol:
Briefly, a 10× stock of PDPK1 enzyme from Invitrogen (P3001) or BPS (40080) or SignalChem (P14-10H), 1.13×ATP (AS001A) and ST28-Sox peptide substrate (KNZ1281C) were prepared in 1× kinase reaction buffer consisting of 20 mM Tris, pH 7.5, 5 mM MgCl2, 1 mM EGTA, 5 mM β-glycerophosphate, 5% glycerol (10× stock, KB002A) and 0.2 mM DTT (DS001A). 5 μL of enzyme were pre-incubated in a Corning (#3574) 384-well, white, non-binding surface microtiter plate (Corning, N.Y.) for 30 min at 25° C. with a 0.5 μL volume of 50% DMSO and serially diluted compounds prepared in 50% DMSO. Kinase reactions were started with the addition of 45 […] of the ST28-Sox peptide substrate and monitored every 71 seconds for 30-60 minutes at λex360/λem485 in a Synergy4 plate reader from BioTek (Winooski, Vt.). At the conclusion of each assay, progress curves from each well were examined for linear reaction kinetics and fit statistics (R^2, 95% confidence interval, absolute sum of squares). Post-lag velocity (+10 minutes to 20+ minutes) from each reaction was estimated from the slope of a plot of relative fluorescence units vs time (minutes) and normalized to the no enzyme and no inhibitor control groups for % Inhibition. The resulting inhibition values were then plotted against inhibitor concentration to estimate IC50 from log [Inhibitor] vs Response, Variable Slope model in GraphPad Prism from GraphPad Software (San Diego, Calif.).
[Reagent] used in provisional protocol(s): Invitrogen—[PDPK1]=5-10 nM, [ATP]=5 μM and [ST28-Sox]=5 μM or 10 μM (ATP KMapp=4-6 μM); BPS—[PDPK1]=10-15 nM, [ATP]=5 μM and [ST28-Sox]=10 μM (ATP KMapp=3-5 μM); SignalChem—[PDPK1]=5-10 nM, [ATP]=5 μM and [ST28-Sox]=5 μM or 10 μM (ATP KMapp ND)

Test [1] addresses T2, HCV NS3/4A 1b protease enzyme (wild type) (Hepatitis C virus genotype 1b, UniProt P26663).
T2 construct: 10× stocks of NS3/4A protease enzyme from Bioenza (Mountain View, Calif.); purchased Bioenza
Put plainly: HCV protease FRET assay (IC50_APP), wild type NS3/4A 1b. In kind it is biochemical. Here is the method: HCV Protease FRET Assay for WT and Mutated NS3/4A 1b Enzymes (IC50_APP).
The following protocol was used to generate “apparent” IC50 (IC50_APP) values as depicted in Table 6, below. Without wishing to be bound by any particular theory, it is believed that IC50_APP, contrasted with IC50 values, may provide a more useful indication of time-dependent inhibition, and are thus more representative of binding affinity. […] 5 μL of each enzyme were added to Corning (#3575) 384-well, black, microtiter plates (Corning, N.Y.) after spotting a 0.5 μL volume of 50% DMSO and serially diluted compounds prepared in 50% DMSO. Protease reactions were immediately started after enzyme addition with the addition of 45 μL of the FRET substrate and monitored for 60-90 minutes at λex485/λem520 in a Synergy plate reader from BioTek (Winooski, Vt.). At the conclusion of each assay, progress curves from each well were examined for linear reaction kinetics and fit statistics (R^2, 95% confidence intervals, absolute sum of squares). Initial velocity (0 minutes to 15+ minutes) from each reaction was determined from the slope of a plot of relative fluorescence units vs time (minutes) and then plotted against inhibitor concentration as a percent of the no inhibitor and no enzyme controls to estimate apparent IC50 from log [Inhibitor] vs Response. (Variable Slope model in GraphPad Prism from GraphPad Software (San Diego, Calif.).)

Drawing on patent US11542492B2 (Celgene CAR LLC, priority 2009, dated 2023), this text covers IC50 for 29 compounds.

T2 sequence (P26663 1658-1711): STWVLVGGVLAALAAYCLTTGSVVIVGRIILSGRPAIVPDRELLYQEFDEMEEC
T2 sequence (P26663 1027-1657): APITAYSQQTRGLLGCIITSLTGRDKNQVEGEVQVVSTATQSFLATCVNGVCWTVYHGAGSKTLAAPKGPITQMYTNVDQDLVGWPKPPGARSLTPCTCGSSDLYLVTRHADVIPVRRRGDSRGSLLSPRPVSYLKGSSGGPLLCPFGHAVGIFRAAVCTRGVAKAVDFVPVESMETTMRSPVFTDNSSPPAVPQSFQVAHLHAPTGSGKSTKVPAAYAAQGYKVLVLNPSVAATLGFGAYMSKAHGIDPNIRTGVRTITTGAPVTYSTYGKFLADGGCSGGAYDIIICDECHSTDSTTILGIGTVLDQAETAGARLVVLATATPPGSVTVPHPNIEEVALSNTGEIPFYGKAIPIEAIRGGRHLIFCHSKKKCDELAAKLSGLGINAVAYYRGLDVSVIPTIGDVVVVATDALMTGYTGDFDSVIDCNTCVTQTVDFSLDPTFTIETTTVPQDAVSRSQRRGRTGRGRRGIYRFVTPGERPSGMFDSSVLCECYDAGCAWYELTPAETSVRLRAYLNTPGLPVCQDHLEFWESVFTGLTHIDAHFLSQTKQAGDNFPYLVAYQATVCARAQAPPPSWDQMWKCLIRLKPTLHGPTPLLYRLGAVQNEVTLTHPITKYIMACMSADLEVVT

Turning to `CC(C)(C(N)=O)C(=O)NCCCNc1nc(Nc2cccc(NC(=O)c3ccc4c(c3)CCC(=O)O4)c2)ncc1Br` [XI-36], at PDPK1, the IC50 lay within 10 to 100 nM. Consider `C=C[C@@H]1C[C@]1(NC(=O)[C@@H]1CC(OC(=O)N2Cc3cccc(F)c3C2)CN1C(=O)[C@H](CN(C)C(=O)[C@H]1CCC(=O)O1)NC(=O)OC(C)(C)C)C(=O)NS(=O)(=O)C1CC1` (stereo partly drawn) [XVI-18, (5S)-1-((S)-2-(tert-butoxycarbonylamino)-3-((R)-N-methyl-5-oxotetrahydrofuran-2-carboxamido)propanoyl)-5-((1R,2S)-1-(cyclopropylsulfonylcarbamoyl)-2-vinylcyclopropylcarbamoyl)pyrrolidin-3-yl 4-fluoroisoindoline-2-carboxylate], for which the IC50 in test [1] was in the range of 1 to 10 nM. With `C=CC(=O)NCC(=O)Nc1cccc(Nc2ncc(Br)c(NCCCNC(=O)C(C)(C)C(N)=O)n2)c1` [XI-31], the IC50 at PDPK1 was in the range of 10 to 100 nM.

With `C=C[C@@H]1C[C@]1(NC(=O)[C@@H]1CC(OC(=O)N2Cc3cccc(F)c3C2)CN1C(=O)[C@H](CNC(=O)[C@@H]1CCC(=O)O1)NC(=O)OC(C)(C)C)C(=O)NS(=O)(=O)C1CC1` (stereo partly drawn) [XVI-21, (5S)-1-((S)-2-(tert-butoxycarbonylamino)-3-((S)-5-oxotetrahydrofuran-2-carboxamido)propanoyl)-5-((1R,2S)-1-(cyclopropylsulfonylcarbamoyl)-2-vinylcyclopropylcarbamoyl)pyrrolidin-3-yl 4-fluoroisoindoline-2-carboxylate], the IC50 in test [1] is 1 to 10 nM.

In the case of `CON1C[C@H](NC(=O)CCC(=O)Nc2cccc(Nc3ncc(Br)c(NCCCNC(=O)C(C)(C)C(N)=O)n3)c2)C1=O` [XI-47], on PDPK1, the IC50 is under 10 nM.

Take `CC(C)(C(N)=O)C(=O)NCCCNc1nc(Nc2ccc(CCC(=O)N3C[C@@H]4C[C@H]3C(=O)O4)cc2)ncc1Br` [XI-41]: the IC50 on PDPK1 was under 10 nM. In the case of `C=C[C@@H]1C[C@]1(NC(=O)[C@@H]1CC(OC(=O)N2Cc3cccc(F)c3C2)CN1C(=O)[C@@H]1CCC(=O)O1)C(=O)NS(=O)(=O)C1CC1` (stereo partly drawn) [XVI-23, (5S)-5-((1R,2S)-1-(cyclopropylsulfonylcarbamoyl)-2-vinylcyclopropylcarbamoyl)-1-((S)-5-oxotetrahydrofuran-2-carbonyl)pyrrolidin-3-yl 4-fluoroisoindoline-2-carboxylate], the IC50 in test [1] lay within 100 to 1000 nM. Turning to `CC(C)(C(N)=O)C(=O)NCCCNc1nc(Nc2cccc(NC(=O)CCC(=O)N3C[C@@H]4CC3C(=O)O4)c2)ncc1Br` [XI-48], the IC50 at PDPK1 was under 10 nM. On to `C=C[C@@H]1C[C@]1(NC(=O)[C@@H]1CC(OC(=O)N2Cc3cccc(F)c3C2)CN1C(=O)CNC(=O)[C@@H]1CCC(=O)O1)C(=O)NS(=O)(=O)C1CC1` (stereo partly drawn) [XVI-13, (5S)-5-((1R,2S)-1-(cyclopropylsulfonylcarbamoyl)-2-vinylcyclopropylcarbamoyl)-1-(2-((S)-5-oxotetrahydrofuran-2-carboxamido)acetyl)pyrrolidin-3-yl 4-fluoroisoindoline-2-carboxylate], for which the IC50 in test [1] was 100 to 1000 nM. As to `CC(C)(C(N)=O)C(=O)NCCCNc1nc(Nc2ccc(CCC(=O)N3C[C@H]4C[C@@H]3C(=O)O4)cc2)ncc1Br` [XI-40], the IC50 on PDPK1 was under 10 nM.

For the compound `CC(C)(C(N)=O)C(=O)NCCCNc1nc(Nc2cccc(NC(=O)CNC(=O)C3CCSC3=O)c2)ncc1Br` (centres unmarked) [XI-24], the IC50 at PDPK1 is 10 to 100 nM. On the same count and under the same terms, then `CC(C)(C(N)=O)C(=O)NCCCNc1nc(Nc2cccc(N3C(=O)CCC3=O)c2)ncc1Br` [XI-46], with 10 to 100 nM. Turning to `C=C[C@@H]1C[C@]1(NC(=O)[C@@H]1CC(OC(=O)N2Cc3cccc(F)c3C2)CN1C(=O)[C@H](CN(C)C(=O)[C@@H]1CCC(=O)O1)NC(=O)OC(C)(C)C)C(=O)NS(=O)(=O)C1CC1` (stereo partly drawn) [XVI-19, (5S)-1-((S)-2-(tert-butoxycarbonylamino)-3-((S)-N-methyl-5-oxotetrahydrofuran-2-carboxamido)propanoyl)-5-((1R,2S)-1-(cyclopropylsulfonylcarbamoyl)-2-vinylcyclopropylcarbamoyl)pyrrolidin-3-yl 4-fluoroisoindoline-2-carboxylate], the IC50 in test [1] lay in the range of 1 to 10 nM. As to `CC(C)(C(N)=O)C(=O)NCCCNc1nc(Nc2cccc(CCC(=O)N3C[C@@H]4C[C@H]3C(=O)O4)c2)ncc1Br` [XI-44], at PDPK1, the IC50 was 10 to 100 nM.

Regarding `CC(C)(C(N)=O)C(=O)NCCCNc1nc(Nc2cccc(NC(=O)C3CC(=O)CC(=O)C3)c2)ncc1Br` [XI-29], the IC50 at PDPK1 was 10 to 100 nM. The same measure, in the same setting: then `CC(C)(C(N)=O)C(=O)NCCCNc1nc(Nc2cccc(NC(=O)[C@H]3CCC(=O)O3)c2)ncc1Br` [XI-50], with 10 to 100 nM. On the same count and under the same terms, then `CC(C)(C(N)=O)C(=O)NCCCNc1nc(Nc2cccc(NC(=O)CCC(=O)Oc3ccccc3)c2)ncc1Br` [XI-25], with under 10 nM; and `CC(C)(C(N)=O)C(=O)NCCCNc1nc(Nc2ccc(NC(=O)[C@H]3CCC(=O)O3)cc2)ncc1Br` [XI-42], with 10 to 100 nM.

As for `CC(C)(C(N)=O)C(=O)NCCCNc1nc(Nc2cccc(NC(=O)CC(NC(=O)CCCC(=O)NCCCOCCOCCOCCCNC(=O)CCCC[C@@H]3SC[C@@H]4NC(=O)N[C@@H]43)C(=O)N3C[C@H]4C[C@@H]3C(=O)O4)c2)ncc1Br` (some centres unmarked) [XI-56], the IC50 at PDPK1 lay in the range of 100 to 1000 nM.

In the case of `CC(C)(C(N)=O)C(=O)NCCCNc1nc(Nc2cccc(NC(=O)CNC(=O)[C@@H]3CCC(=O)O3)c2)ncc1Br` [XI-37], the IC50 at PDPK1 lay in the range of 10 to 100 nM.

For `CC(C)(C(N)=O)C(=O)NCCCNc1nc(Nc2cccc(NC(=O)CC(N)C(=O)N3C[C@H]4C[C@@H]3C(=O)O4)c2)ncc1Br` (some centres unmarked) [XI-33], the IC50 at PDPK1 was 10 to 100 nM.

In the case of `CC(C)(C(N)=O)C(=O)NCCCNc1nc(Nc2cccc(NC(=O)CCC(=O)NC3CCSC3=O)c2)ncc1Br` (centres unmarked) [XI-34], the IC50 at PDPK1 fell in the range of 10 to 100 nM. Consider `CC1(C)OC2C(=O)CC(C(=O)NCC(=O)Nc3cccc(Nc4ncc(Br)c(NCCCNC(=O)C(C)(C)C(N)=O)n4)c3)C2O1` (centres unmarked) [XI-32], for which the IC50 at PDPK1 was in the range of 100 to 1000 nM. Same read-out and setting: with `CC(C)(C(N)=O)C(=O)NCCCNc1nc(Nc2cccc(CCC(=O)N3C[C@H]4C[C@@H]3C(=O)O4)c2)ncc1Br` [XI-45] the figure was 10 to 100 nM; with `CC(C)(C(N)=O)C(=O)NCCCNc1nc(Nc2ccc(NC(=O)[C@@H]3CCC(=O)O3)cc2)ncc1Br` [XI-43], 100 to 1000 nM; with `CC(C)(C(N)=O)C(=O)NCCCNc1nc(Nc2cccc(NC(=O)C3CCSC3=O)c2)ncc1Br` (centres unmarked) [XI-23], 10 to 100 nM.

In the case of `CC(C)(C(N)=O)C(=O)NCCCNc1nc(Nc2cccc(NC(=O)CCC(=O)N3CCC3=O)c2)ncc1Br` [XI-55], on PDPK1, the IC50 is under 10 nM.

As for `CC(C)(C(N)=O)C(=O)NCCCNc1nc(Nc2cccc(NC(=O)[C@@H]3CCC(=O)O3)c2)ncc1Br` [XI-52], the IC50 at PDPK1 lay within 10 to 100 nM. Same read-out and setting: then `COC1=CC(=O)CC(C(=O)Nc2cccc(Nc3ncc(Br)c(NCCCNC(=O)C(C)(C)C(N)=O)n3)c2)C1` (centres unmarked) [XI-30], with 10 to 100 nM.
